Laboratory results from the Kinase Knowledgebase extract (Sharma et al. 2016).

target: ROCK2 (human) (UniProt O75116); experiment: Assessment of ROCK2 Kinase Activity
Sequence (O75116 whole entry, looked up): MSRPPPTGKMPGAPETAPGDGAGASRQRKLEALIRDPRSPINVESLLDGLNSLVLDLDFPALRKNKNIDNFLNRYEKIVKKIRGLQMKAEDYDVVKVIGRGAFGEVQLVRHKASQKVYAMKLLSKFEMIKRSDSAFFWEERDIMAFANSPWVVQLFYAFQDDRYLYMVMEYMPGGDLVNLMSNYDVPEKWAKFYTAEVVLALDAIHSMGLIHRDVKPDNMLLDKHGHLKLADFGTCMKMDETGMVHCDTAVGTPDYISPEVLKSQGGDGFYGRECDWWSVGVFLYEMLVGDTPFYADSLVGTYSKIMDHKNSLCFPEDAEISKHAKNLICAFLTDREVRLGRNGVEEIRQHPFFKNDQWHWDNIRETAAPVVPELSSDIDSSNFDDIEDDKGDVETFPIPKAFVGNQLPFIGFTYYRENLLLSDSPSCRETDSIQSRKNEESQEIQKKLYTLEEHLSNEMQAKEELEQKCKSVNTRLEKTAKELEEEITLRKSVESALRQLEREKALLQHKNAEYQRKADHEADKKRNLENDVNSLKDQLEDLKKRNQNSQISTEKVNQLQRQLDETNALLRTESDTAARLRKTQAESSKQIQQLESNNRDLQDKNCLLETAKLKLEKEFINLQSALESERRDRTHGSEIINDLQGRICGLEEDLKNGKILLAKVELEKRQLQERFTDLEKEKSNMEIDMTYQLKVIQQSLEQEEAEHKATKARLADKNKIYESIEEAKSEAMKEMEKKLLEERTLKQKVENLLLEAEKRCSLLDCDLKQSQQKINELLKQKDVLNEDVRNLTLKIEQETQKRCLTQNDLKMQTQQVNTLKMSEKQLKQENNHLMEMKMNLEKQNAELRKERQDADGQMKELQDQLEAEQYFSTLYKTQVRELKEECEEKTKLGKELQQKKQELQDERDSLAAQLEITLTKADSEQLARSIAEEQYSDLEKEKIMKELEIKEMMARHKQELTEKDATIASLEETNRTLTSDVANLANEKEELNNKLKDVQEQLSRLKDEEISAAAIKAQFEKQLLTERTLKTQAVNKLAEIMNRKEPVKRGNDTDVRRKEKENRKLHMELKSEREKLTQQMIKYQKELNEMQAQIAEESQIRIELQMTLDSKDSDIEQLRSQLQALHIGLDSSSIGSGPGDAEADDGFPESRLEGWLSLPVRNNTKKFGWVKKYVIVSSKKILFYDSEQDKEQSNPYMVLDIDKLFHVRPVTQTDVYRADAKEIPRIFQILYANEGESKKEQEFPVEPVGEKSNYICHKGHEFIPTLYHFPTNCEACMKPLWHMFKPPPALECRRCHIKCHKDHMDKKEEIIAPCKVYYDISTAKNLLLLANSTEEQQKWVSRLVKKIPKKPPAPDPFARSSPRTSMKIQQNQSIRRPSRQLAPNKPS

IC50, ≤ 1 µM:
NCC(=O)N1CCC(Oc2ccc3c(=O)[nH]ccc3c2)CC1
O=c1[nH]ccc2cc(O[C@@H]3CCN(Cc4ccccc4)C3)c(Cl)cc12
C[C@@H](N)C(=O)N1CCC(Oc2cc3cc[nH]c(=O)c3cc2Cl)CC1
Cc1cc2c(=O)[nH]ccc2cc1OC[C@@H]1CCNC1
N[C@@H](Cc1ccc(Cl)cc1)C(=O)N1CCC(Oc2cc3cc[nH]c(=O)c3cc2Cl)CC1
Cc1cc2c(=O)[nH]ccc2cc1O[C@H]1CCNC1
O=c1[nH]ccc2cc(OC3CCCNCC3)c(Cl)cc12 (configuration not stated)
CN(C)CC(=O)N1CCC(Oc2cc3cc[nH]c(=O)c3cc2Cl)CC1
Cc1cc2c(=O)[nH]ccc2cc1OC1CCCNCC1 (configuration not stated)
O=C([C@@H]1CCCN1)N1CCC(Oc2cc3cc[nH]c(=O)c3cc2Cl)CC1
CCCNC(=O)CN1CCC(Oc2cc3cc[nH]c(=O)c3cc2Cl)CC1
O=c1[nH]ccc2cc(OC3CNC3)c(Cl)cc12
